pIC50: −log10 of the molar value.
Tests used:
[1] = target: T1, Mitogen-activated protein kinase kinase kinase kinase 3 (Homo sapiens) (UniProt Q8IVH8); assay: Inhibition of MAP4K3 (unknown origin) assessed as residual activity at 10 uM incubated for 5 mins in presence of [gamma-33ATP] by scintillation counting based radiometry assay relative to control
T1 sequence (whole entry): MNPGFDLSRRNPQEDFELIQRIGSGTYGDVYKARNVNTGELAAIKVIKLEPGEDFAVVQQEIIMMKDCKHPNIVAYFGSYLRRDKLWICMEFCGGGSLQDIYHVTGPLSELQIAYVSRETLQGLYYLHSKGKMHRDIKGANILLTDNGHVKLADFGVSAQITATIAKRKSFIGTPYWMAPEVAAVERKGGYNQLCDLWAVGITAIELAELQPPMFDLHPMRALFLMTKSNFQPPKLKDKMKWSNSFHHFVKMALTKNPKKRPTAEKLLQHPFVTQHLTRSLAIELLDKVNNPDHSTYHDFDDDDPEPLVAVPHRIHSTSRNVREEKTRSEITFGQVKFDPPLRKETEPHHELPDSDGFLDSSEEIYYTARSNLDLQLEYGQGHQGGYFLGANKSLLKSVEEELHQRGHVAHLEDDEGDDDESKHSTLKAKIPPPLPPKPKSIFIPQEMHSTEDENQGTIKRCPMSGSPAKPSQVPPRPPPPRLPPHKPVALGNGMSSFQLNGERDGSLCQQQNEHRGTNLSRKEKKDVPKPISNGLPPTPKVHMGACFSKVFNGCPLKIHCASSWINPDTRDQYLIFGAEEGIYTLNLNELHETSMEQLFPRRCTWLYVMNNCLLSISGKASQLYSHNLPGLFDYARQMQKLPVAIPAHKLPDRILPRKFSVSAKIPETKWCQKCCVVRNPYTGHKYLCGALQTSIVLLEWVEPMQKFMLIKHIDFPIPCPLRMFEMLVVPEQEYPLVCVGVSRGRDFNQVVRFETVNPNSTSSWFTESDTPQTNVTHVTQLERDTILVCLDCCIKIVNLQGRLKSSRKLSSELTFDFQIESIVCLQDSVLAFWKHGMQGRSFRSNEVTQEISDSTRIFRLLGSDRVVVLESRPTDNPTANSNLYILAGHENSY

[2] = target: Platelet-derived growth factor receptor alpha (Homo sapiens, UniProt P16234); assay: Inhibition of PDGFRalpha (unknown origin) assessed as residual activity at 10 uM incubated for 5 mins in presence of [gamma-33ATP] by scintillation counting based radiometry assay relative to control
Chain of Platelet-derived growth factor receptor alpha (P16234 whole entry): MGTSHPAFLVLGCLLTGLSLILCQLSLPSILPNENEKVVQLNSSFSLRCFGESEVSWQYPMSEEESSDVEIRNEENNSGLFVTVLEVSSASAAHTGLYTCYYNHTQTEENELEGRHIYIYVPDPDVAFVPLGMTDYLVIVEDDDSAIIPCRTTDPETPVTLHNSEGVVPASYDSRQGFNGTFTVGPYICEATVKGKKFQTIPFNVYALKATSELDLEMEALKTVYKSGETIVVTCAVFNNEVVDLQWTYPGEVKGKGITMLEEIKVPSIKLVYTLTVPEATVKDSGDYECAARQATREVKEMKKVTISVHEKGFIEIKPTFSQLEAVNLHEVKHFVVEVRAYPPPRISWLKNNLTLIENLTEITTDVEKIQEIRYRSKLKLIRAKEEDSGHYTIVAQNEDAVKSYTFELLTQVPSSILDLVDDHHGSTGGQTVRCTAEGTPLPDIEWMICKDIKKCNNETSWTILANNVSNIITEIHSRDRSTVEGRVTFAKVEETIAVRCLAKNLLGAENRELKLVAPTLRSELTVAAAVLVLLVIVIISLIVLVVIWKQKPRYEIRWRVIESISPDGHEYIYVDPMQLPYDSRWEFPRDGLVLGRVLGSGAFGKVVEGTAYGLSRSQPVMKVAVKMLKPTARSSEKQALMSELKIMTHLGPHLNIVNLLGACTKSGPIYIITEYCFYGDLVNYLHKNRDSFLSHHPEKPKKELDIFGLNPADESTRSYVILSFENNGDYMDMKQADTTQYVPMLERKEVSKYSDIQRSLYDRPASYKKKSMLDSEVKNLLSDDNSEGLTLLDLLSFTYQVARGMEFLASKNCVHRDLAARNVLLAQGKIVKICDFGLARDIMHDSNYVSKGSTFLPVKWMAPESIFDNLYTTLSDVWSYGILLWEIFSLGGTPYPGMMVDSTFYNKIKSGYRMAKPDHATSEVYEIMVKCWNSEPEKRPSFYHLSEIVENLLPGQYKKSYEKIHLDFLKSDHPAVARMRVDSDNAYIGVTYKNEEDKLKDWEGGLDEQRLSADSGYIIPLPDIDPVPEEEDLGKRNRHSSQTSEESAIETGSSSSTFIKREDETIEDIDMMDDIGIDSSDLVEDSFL

[3] = target: T2, Ephrin type-B receptor 2 (Homo sapiens) (UniProt P29323); assay: Inhibition of EPHB2 (unknown origin) assessed as residual activity at 10 uM incubated for 5 mins in presence of [gamma-33ATP] by scintillation counting based radiometry assay relative to control
T2 sequence (whole entry): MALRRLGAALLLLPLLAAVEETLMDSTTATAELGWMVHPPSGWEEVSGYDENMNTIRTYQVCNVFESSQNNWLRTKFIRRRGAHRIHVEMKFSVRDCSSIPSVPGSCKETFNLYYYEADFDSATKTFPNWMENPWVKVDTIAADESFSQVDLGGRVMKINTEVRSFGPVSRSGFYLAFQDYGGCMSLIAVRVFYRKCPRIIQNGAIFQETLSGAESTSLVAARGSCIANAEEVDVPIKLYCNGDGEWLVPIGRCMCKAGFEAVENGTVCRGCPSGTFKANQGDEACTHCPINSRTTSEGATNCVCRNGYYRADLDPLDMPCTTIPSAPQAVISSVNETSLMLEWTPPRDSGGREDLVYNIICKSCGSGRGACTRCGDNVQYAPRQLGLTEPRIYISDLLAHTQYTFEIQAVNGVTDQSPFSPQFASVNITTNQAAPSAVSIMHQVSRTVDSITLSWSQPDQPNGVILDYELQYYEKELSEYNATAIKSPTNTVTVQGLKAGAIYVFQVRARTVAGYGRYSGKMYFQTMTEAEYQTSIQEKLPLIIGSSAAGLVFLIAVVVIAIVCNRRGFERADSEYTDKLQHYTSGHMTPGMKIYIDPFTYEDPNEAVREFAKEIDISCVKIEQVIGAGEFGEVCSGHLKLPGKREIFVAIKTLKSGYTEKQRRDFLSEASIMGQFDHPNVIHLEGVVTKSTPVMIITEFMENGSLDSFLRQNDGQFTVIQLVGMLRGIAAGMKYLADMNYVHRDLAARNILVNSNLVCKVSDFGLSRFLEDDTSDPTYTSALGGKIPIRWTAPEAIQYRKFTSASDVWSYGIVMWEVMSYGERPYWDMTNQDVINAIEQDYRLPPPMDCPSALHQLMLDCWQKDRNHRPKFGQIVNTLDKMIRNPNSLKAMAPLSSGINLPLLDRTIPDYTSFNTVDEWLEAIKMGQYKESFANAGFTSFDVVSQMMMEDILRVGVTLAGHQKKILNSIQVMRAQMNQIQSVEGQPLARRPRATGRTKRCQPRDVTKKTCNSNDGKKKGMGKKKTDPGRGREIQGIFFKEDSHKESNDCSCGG

[4] = target: Serine/threonine-protein kinase Nek6 (Homo sapiens, UniProt Q9HC98); assay: Inhibition of NEK6 (unknown origin) assessed as residual activity at 10 uM incubated for 5 mins in presence of [gamma-33ATP] by scintillation counting based radiometry assay relative to control
Chain of Serine/threonine-protein kinase Nek6 (Q9HC98 whole entry): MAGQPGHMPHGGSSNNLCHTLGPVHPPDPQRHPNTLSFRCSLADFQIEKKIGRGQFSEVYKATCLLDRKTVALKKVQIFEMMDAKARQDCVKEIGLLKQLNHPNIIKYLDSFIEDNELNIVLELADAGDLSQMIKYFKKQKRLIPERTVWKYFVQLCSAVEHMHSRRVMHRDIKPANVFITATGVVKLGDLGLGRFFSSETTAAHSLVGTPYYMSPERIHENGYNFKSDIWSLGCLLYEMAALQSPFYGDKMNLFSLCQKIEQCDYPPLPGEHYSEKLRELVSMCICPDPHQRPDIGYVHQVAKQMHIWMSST

[5] = Inhibition of VEGFR (unknown origin) assessed as residual activity incubated for 5 mins in presence of [gamma-33ATP] by scintillation counting based radiometry assay; design: species or system Homo sapiens

Row | SMILES | Activity [1] | Activity [2] | Activity [3] | Activity [4] | pIC50 [5]
1 | Cc1cn(-c2cc(NC(=O)c3ccc(C)c(Nc4nccc(-c5cccnc5)n4)c3)cc(C(F)(F)F)c2)cn1 [NILOTINIB] | 107% | 56% | 25% | 97% | –
2 | Cc1ccc(C(=O)Nc2ccc(CN3Cc4cn[nH]c4C3)c(Cl)c2)cc1C#Cc1cnc2cccnn12 | 14% | 16% | 1% | 9% | 7.35

Source: ChEMBL document CHEMBL4602709 (ACS Med Chem Lett, 2020)
